Source: PMC6405172, “In vitro activity and mode of action of phenolic compounds on Leishmania donovani” (PLoS Neglected Tropical Diseases, 2019)
Read-outs that look alike come from different tables or passages of the source.

Assays:
[1] = Cytotoxicity of compounds on mammalian cells (MTT); format: cell-based; settings: mouse, Raw 264.7 macrophage cells, Raw 264.7 cells, read-out: Macrophages CC50 (μM) ±SD
Description: Raw 264.7 cells were seeded into 96-well plates at (1 x 10^6 cells) in DMEM supplemented with 10% FBS, 100 μg/mL streptomycin, 100 u/mL penicillin-G, 2g/L NaHCO3 and incubated at 37°C for 24 hours in 5% CO2. The cells were treated with 0–50 μg/mL concentrations of the phenolic compounds for 48 hours at 37°C in 5% CO2. Deferoxamine and amphotericin B at 0–50 μg/mL concentrations were used as positive controls. Cell viability was estimated by measuring the mitochondria oxidative activity by MTT assay and absorbance was read at 570 nm using Thermo Scientific Varioskan LUX. Selectivity index (SI) was calculated as the ratio of the CC50 to IC50 values.

[2] = tested on: Leishmania donovani intracellular amastigotes; test: Intracellular amastigote assay in infected RAW 264.7 cells; format: cell-based; settings: for Selectivity Index (CC50/IC50), amastigotes: CC50 Raw 264.7 / IC50 intracellular amastigotes; for IC50: intracellular amastigotes in RAW 264.7 cells, 48 hours, read-out: Amastigotes IC50 (μM) ± SD
Description: (§1) Amastigote cultures were prepared as reported by Jain and colleagues. Briefly, Raw 264.7 cells (4 x 10^7 cells) were seeded in 4 chamber slides and 1 x 10^7 cells in 96 well plates and incubated for 24 hours at 37°C in 5% CO2. The RAW 264.7 cells were infected with metacyclic promastigotes (1 x 10^8 cells) at an infection ratio of 1:10 macrophage: parasites and incubated for 24 hours at 37°C in 5% CO2. The overlying medium was removed, and the monolayer intracellular amastigotes were carefully washed four times with serum free M199 to remove free parasites. Freshly prepared M199 containing 10% FBS and the test compounds at concentrations ranging from 0–50 μg/mL were added to the infected cells and incubated for 48 hours at 37°C in 5% CO2. Triplicate incubations were performed in all the experiments. The chamber slides were washed thrice after incubation with M199 without FBS. The slides were then fixed in absolute methanol for 30 sec, rehydrated in 1x PBS for 5 min and stained with DAPI for 15 min. The slides were viewed by fluorescence microscopy and the number of infected macrophages counted using ImageJ Software to determine the infectivity index and IC50 values for amastigotes.
The infected RAW 264.7 cells in the 96 wells microtiter plates were also incubated for 48 hours and washed thrice as above. Sodium dodecyl sulfate (SDS) of concentration 0.05% was added to the wells for 30 sec for controlled lysis with M199 and 10% FBS. After the 30 sec, M199 with 10% FBS was added and the plates incubated at 25°C for 72 hours for the differentiation of the rescued amastigotes to promastigotes. Following incubation, the amastigotes were subjected to MTT assay and the absorbance obtained were used to estimate IC50 values of the compounds against the amastigote forms.

[3] = tested on: Leishmania donovani promastigotes; test: Parasite growth analysis (trypan blue counting); format: cell-based; settings: IC50 concentrations; for decrease in the number of promastigotes: at 48 hours
Description: The dose dependent inhibition of phenolic compounds on promastigotes was determined by culturing promastigotes (2 x 10^5 cells) in freshly prepared M199 medium in the presence and absence of varying concentration of the test compounds, apigenin (IC50, 2x IC50, 4x IC50), rosmarinic acid (IC50, 2x IC50, 4x IC50), amphotericin B (1/2 IC50, IC50) and deferoxamine (IC50, 2x IC50, 4x IC50), for 120 hours. The number of parasites was determined by staining with trypan blue every 24 hours. Quantification of the viable parasites was determined by counting the parasites with the clear cytoplasm (non-stained) using a Neubauer hemocytometer with a cover slip. Three independent experiments were performed, and data expressed as mean ± standard deviation.

[4] = tested on: L. donovani promastigotes; test: Promastigote mitochondria integrity (MitoTracker Red CMXROS); format: cell-based, Leishmania donovani; settings: 24 hours; 2x IC50 (amphotericin B 1/2 IC50)
Description: After incubation, the promastigotes were harvested and resuspended in serum-free M199/1%BSA. MitoTracker Red CMXROS (a cationic fluorescent dye that labels the mitochondria within live cells) at 100 nM was added and incubated for 30 min. Parasites were washed once with serum-free M199/1% BSA, pelleted by centrifugation at 1500 rpm for 10 min, resuspended in 1x vPBS and 6% paraformaldehyde and incubated at 4°C for 1 hour. The promastigote pellets were washed twice and resuspended in 1xPBS. The parasites were then allowed to settle on poly-L-lysine coated slides and DAPI stain (0.1μg/mL) was added followed by one wash in 1x PBS. Coverslips were mounted onto the slides using Vectashield mounting media and observed under the Olympus fluorescent microscope to detect any abnormalities in the structure of the mitochondria. The total number of parasites was determined by direct counting of parasites per field, using ImageJ Software. Parasites with distorted mitochondria were visually determined by counting parasites that had any abnormalities in the structure of the mitochondria compared to the untreated control.

[5] = tested on: Leishmania iron transporter 1 (LIT1); test: RT-qPCR mRNA expression of LIT1; format: cell-based, Leishmania donovani; settings: promastigotes, 24 hours; for LIT1 Relative quantity: Fig 7A
Description: Promastigotes (1 x 10^7 cells) were separately treated with rosmarinic acid, apigenin, amphotericin B and deferoxamine, harvested after 24 hours incubation at 25°C. The parasites were then pelleted by centrifugation at 239 × g for 10 min and the pellet was re-suspended in 1 mL TRIzol. Samples were incubated overnight at -80°C and total RNA was extracted as described by the manufacturer’s protocol using Quick-RNA MiniPrep Plus (Zymo Research, USA). Purity of total RNA was determined to be approximately 2.0 using a Nanodrop. The oligonucleotide primers for the amplification of the iron dependent enzymes—ribonucleotide reductase (RNR) (3’[…] and 5’CAACAACTTCTGCGCATCG), iron superoxide dismutase A (FeSOD) (3’[…] and 5’[…]) and Leishmania iron transporter 1 (LIT1) (3’[…] and 5’ […]) were designed using sequences of Leishmania reference genome from tritrypdb.org (http://tritrypdb.org/tritrypdb/) and Primer 3 software. The oligonucleotide primers used in amplifying the housekeeping gene Histone 2A were (3’ […] and 5’[…]). The RT-qPCR reaction was conducted as described by manufacturer’s protocol with final concentrations of oligonucleotide primers as 0.4 μM, 1x Luna Universal One-Step Reaction mix, 1x Luna WarmStart RT Enzyme Mix and template RNA ≤ 1 μg. All the RT-PCR products were standardized with respect to the endogenous control, Histone 2A. The levels of the mRNA transcripts were obtained using the QuantStudio 5 Real-Time PCR System (Applied Biosystems). The data represent three independent experiments done in triplicate and a fold change in gene expression of >2 was considered significant.

[6] = tested on: Leishmania donovani intracellular amastigotes; test: Infectivity index of infected macrophages (DAPI, fluorescence microscopy); format: cell-based; settings: 48 hours; for infectivity values (infectivity index): concentration not given
Description: as §1

| Compound | CC50 at 48 h [1] [µM] | Selectivity Index (CC50/IC50), amastigotes [2] | IC50 ([2]; Leishmania donovani, RAW264.7) [µM] | decrease in the number of promastigotes [3] [%] | promastigotes with mitotracker dye accumulating in the cytoplasm (distorted mitochondrion) [4] [%] | LIT1 mRNA expression versus untreated [5] | LIT1 Relative quantity [5] | infectivity values (infectivity index) [6] | IC50 ([2]; Leishmania donovani, RAW264.7, 48 h) [µM] | IC50 [2] [µM] | reduction in the number of parasites ([3]; at 24 hours) [%] | infectivity index ([6]; 3.12 μg/mL) |
| --- | --- | --- | --- | --- | --- | --- | --- | --- | --- | --- | --- | --- |
| CC(=O)N(O)CCCCCNC(=O)CCC(=O)N(O)CCCCCNC(=O)CCC(=O)N(O)CCCCCN [Deferoxamine, deferoxamine, reference compound] | 26.88 ± 0.02 | 0.73 | 36.74 ± 0.01 | 50 | 81 | 125 fold | 125 | 177 |  |  |  |  |
| C[C@@H]1[C@H](O)[C@@H](C)/C=C/C=C/C=C/C=C/C=C/C=C/C=C/[C@H](O[C@@H]2O[C@H](C)[C@@H](O)[C@H](N)[C@@H]2O)C[C@@H]2O[C@](O)(C[C@@H](O)C[C@@H](O)[C@H](O)CC[C@@H](O)C[C@@H](O)CC(=O)O[C@H]1C)C[C@H](O)[C@H]2C(=O)O [Amphotericin B, reference compound] | 15.75 ± 0.03 | 2.40 |  |  | 99 | 5 fold | 4.7 |  | 6.491 ± 0.03 | 6.49 ± 0.03 | 90 | 56 |
| O=c1cc(-c2ccc(O)cc2)oc2cc(O)cc(O)c12 [Apigenin, apigenin] | 237.9 ± 0.03 | 5.21 | 45.66 ± 0.01 | 50 | 75.8 | no observed change | 0.8 | 152.2 |  |  |  |  |
| O=C(/C=C/c1ccc(O)c(O)c1)O[C@H](Cc1ccc(O)c(O)c1)C(=O)O [Rosmarinic acid, rosmarinic acid] | 245.6 ± 0.3 | 12.70 | 19.21 ± 0.01 | 50 | 70 | 3 fold | 3.0 | 140 |  |  |  |  |
